Assay results as given in US20230073755A1, “USE OF IGF1 IN COMBINATION WITH IGFEC24 IN PREPARATION OF MEDICINE FOR PROMOTING TISSUE REPAIR AND REGENERATION” (Chongqing University, priority 2020, published 2023).

What was measured:
[1] = test system: skeletal muscle cells; test: Skeletal muscle cell proliferation effect (Edu / Desmin immunofluorescence of gastrocnemius muscle), SD rats; format: in vivo; conditions: gastrocnemius muscle sections, FIG. 8
Procedure: In certain embodiments, adult female SD rats were divided into five groups: PBS group, IGF1 group, IGF1Ec group, IGF1-24 group, and IGF1+IGF1Ec24 peptide group, with three rats in each group. The rats in each group were distinguished by ear clipping for subsequent protein injection according to the different body weights of the rats.
The rats in each group were injected with PBS, IGF1, IGF1Ec24 peptide, IGF1Ec and IGF1-24 for 7 consecutive days. Recombinant protein IGF1-24 was injected at 100 μg/kg, and the injection of the remaining proteins in each group was converted according to the molar amount of IGF1-24 injection as follows: 90 μg/kg for IGF1, 8.9 μg/kg for IGF1Ec24 peptide, 104 μg/kg for IGF1Ec.
After seven days of protein injection, the intraperitoneal injection of Edu solution at a concentration of 2.5 mg/kg was performed for seven days, so that the final total dose of each rat reached 50 mg/kg. […]

[2] = test system: sciatic nerve; test: Sciatic nerve injury repair in rat sciatic nerve injury (clamp) model; format: in vivo, SD rats
Source text: The 8-week-old female SD rats were randomly divided into sham-operated and operated groups, with 3 rats in each group. SD rats were anesthetized by intraperitoneal injection of 10% chloral hydrate, and after successful anesthesia, the rats were fixed, and their right hind limbs were exposed by shaving with a shaver, and disinfected twice with 75% alcohol. A 3-4 cm incision was made with a scalpel at the posterior lateral femur of the right hind limb to expose the biceps femoris muscle, and the muscle was bluntly separated with surgical scissors to expose the thick sciatic nerve. The sciatic nerve was clamped vertically with a microhemostatic forceps, buckled to the third buckle, maintained for 10 s, repeated 3 times at 5 s/interval, resulting in an injury area approximately 2 mm wide, and the sciatic nerve was put back in place and sutured layer by layer. Penicillin (40,000 units/100g) was injected intraperitoneally for three consecutive days to prevent wound infection. […]
A dark box runway of 70 cm in length, 10 cm in width and 10 cm in height was made. […] The footprint length (PL), toe width (TS) and middle toe width (IT) were then measured and brought into the Bain formula for calculation.Bain formula: SFI=109.5 (ETS−NTS)/NTS−38.3 (EPL−NPL)/NPL+13.3(EIT−NIT)/NIT−8.8. […]

Q: Which results are given for “IGF1-24: 97 amino acids: amino-terminal 70 identical to IGF1, carboxyl-terminal 24 identical to IGFEc24 peptide, joined by three Gly linkers (SEQ ID NO: 4)”?
A: number of Edu-positive skeletal muscle cells per square millimeter [1]: 28 per square millimeter; expression of GAP-43 in the sciatic nerve (immunofluorescence) ([2]; after 14 days of IGF1-24 100 μg/kg intraperitoneally, significantly different from control and Injury groups, FIG. 15): remained at a high level; sciatic nerve index (SFI) ([2]; treated group after IGF1-24 treatment, footprint analysis, Bain formula, FIG. 17): close to that of the uninjured group
